Measured values as given in patent publication US20200069691A1, “HETEROCYCLIC COMPOUNDS AS HIV PROTEASE INHIBITORS” (Merck Sharp & Dohme Corp., priority 2016, published 2020).

Target: T1, wild-type HIV-1 protease (Human immunodeficiency virus type 1 group M subtype B, UniProt P04585)
T1 construct: Escherichia coli expressed wild-type HIV-1 protease protein
Assay: Assay for Inhibition of Microbial Expressed HIV Protease (peptide substrate cleavage, LC-MS/MS readout)
Assay type: biochemical
Settings: E. coli expressed wild-type HIV-1 protease, mean of at least two independent experiments, read-out: HIV Pr Enzyme HIV1 PR IC50
How it was run: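 Cleavage of Val-Ser-Gln-Asn-(β-naphthyl)Ala-Pro-Ile-Val (400 μM) by recombinant HIV-1 protease ([…]) ran 1 h at 30 °C after a 30 min room-temperature inhibitor preincubation in 50 mM sodium acetate pH 5.5. Product peak areas by LC-MS/MS gave inhibition; values average at least two independent runs.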

SMILES	IC50
N=C1NC(c2ccccc2)(c2ccccc2)C(=O)N1Cc1cccc(C(=O)N2Cc3cnc(C(F)(F)F)nc3C2)c1 [Compound 242, 2-imino-5,5-diphenyl-3-(3-{[2-(trifluoromethyl)-5,7-dihydro-6H-pyrrolo[3,4-d]pyrimidin-6-yl]carbonyl}benzyl) imidazolidin-4-one]	16.6 nM
CC1c2ccccc2CN1C(=O)c1cccc(CN2C(=N)NC(c3ccc(F)cc3)(c3ccc(F)cc3)C2=O)c1 (centres unmarked) [Compound 311, 5,5-bis(4-fluorophenyl)-2-imino-3-{3-[(1-methyl-1,3-dihydro-2H-isoindol-2-yl)carbonyl]benzyl} imidazolidin-4-one]	51.8 nM
CCCC1(c2ccccc2)NC(=N)N(Cc2cccc(C(=O)N3Cc4ccccc4C3)c2)C1=O (centres unmarked) [Compound 236, 3-[3-(1,3-dihydro-2H-isoindol-2-ylcarbonyl)benzyl]-2-imino-5-phenyl-5-propylimidazolidin-4-one]	14.4 nM
CC(C)CCC1(c2ccccc2)NC(=N)N(Cc2cccc(C(=O)N3CCN(c4ncccn4)CC3)c2)C1=O (centres unmarked) [Compound 244, 2-imino-5-(3-methylbutyl)-5-phenyl-3-{3-[(4-pyrimidin-2-ylpiperazin-1-yl)carbonyl]benzyl} imidazolidin-4-one]	16.8 nM
CC(C)CC[C@]1(c2ccccc2)NC(=N)N([C@H](C)c2cccc(C(=O)N3CCN(C)C(=O)C3)c2)C1=O [Compound 272, 4-[(3-{(1R)-1-[2-imino-4-(3-methylbutyl)-5-oxo-4-phenylimidazolidin-1-yl]ethyl}phenyl)carbonyl]-1-methylpiperazin-2-one]	28.3 nM
N=C1N[C@](CCC2CC2)(c2cccc(F)c2)C(=O)N1Cc1ccc(C(F)(F)F)c(C(=O)N2CCn3c(nnc3C(F)(F)F)C2)c1 [Compound 103, (5R)-5-(2-cyclopropylethyl)-5-(3-fluorophenyl)-2-imino-3-[4-(trifluoromethyl)-3-{[3-(trifluoro-methyl)-5,6-dihydro[1,2,4]triazolo-[4,3-a]pyrazin-7(8H)-yl]carbonyl}-benzyl]imidazolidin-4-one]	23.8 nM
N=C1NC(c2ccc(F)cc2)(c2ccc(F)cc2)C(=O)N1Cc1cncc(C(=O)N2CCC(n3c(=O)[nH]c4ccccc43)CC2)c1 [Compound 392, 1-{1-[(5-{[4,4-bis(4-fluorophenyl)-2-imino-5-oxoimidazolidin-1-yl]methyl}pyridin-3-yl)carbonyl]piperidin-4-yl}-1,3-dihydro-2H-benzimidazol-2-one]	61.7 nM
CC(C)CCC1(c2ccccc2)NC(=N)N(Cc2ccc(C(F)(F)F)c(C(=O)N3CCC(F)(F)C3)c2)C1=O (centres unmarked) [Compound 162, 3-{3-[(3,3-difluoropyrrolidin-1-yl)carbonyl]-4-(trifluoromethyl)-benzyl}-2-imino-5-(3-methylbutyl)-5-phenylimidazolidin-4-one]	32.2 nM
CC(C)CCC1(c2ccc(F)cc2)NC(=N)N(Cc2ccc(C(F)(F)F)c(C(=O)N3CC[C@@]4(c5ccccc5)NOC[C@H]4C3)c2)C1=O (stereo partly drawn) [Compound 163, 5-(4-fluorophenyl)-2-imino-5-(3-methylbutyl)-3-[3-{[(3aS,7aR)-7a-phenylhexahydro-isoxazolo[4,3-c]pyridin-5(3H)-yl]carbonyl}-4-(trifluoromethyl)benzyl] imidazolidin-4-one]	33.3 nM
C[C@H](c1cccc(C(=O)N2Cc3ccccc3C2)c1)N1C(=N)NC(c2ccccc2)(c2ccccc2)C1=O [Compound 187, 3-{(1R)-1-[3-(1,3-dihydro-2H-isoindol-2-ylcarbonyl)phenyl]ethyl}-2-imino-5,5-diphenylimidazolidin-4-one]	3.67 nM
CC(C)CC1(c2cccc(F)c2)NC(=N)N(Cc2cccc(C(=O)N3Cc4ccccc4C3)c2)C1=O (centres unmarked) [Compound 264, 3-[3-(1,3-dihydro-2H-isoindol-2-ylcarbonyl)benzyl]-5-(3-fluorophenyl)-2-imino-5-(2-methylpropyl) imidazolidin-4-one]	24.8 nM
CC(C)CCC1(c2ccc(F)cc2)NC(=N)N(Cc2ccc(C(F)(F)F)c(C(=O)N3C[C@@H]4C(=O)NC(=O)[C@]4(c4ccccc4)C3)c2)C1=O (stereo partly drawn) [Compound 159, (3aR,6aR)-5-{[5-{[4-(4-fluorophenyl)-2-imino-4-(3-methylbutyl)-5-oxoimidazolidin-1-yl]methyl}-2-(trifluoromethyl)-phenyl]carbonyl}-3a-phenyltetrahydropyrrolo [3,4-c]pyrrole-1,3 (2H,3aH)-dione]	15.9 nM
CN(C)c1ncc2c(n1)CN(C(=O)c1cc(CN3C(=N)N[C@](CCCC(F)(F)F)(c4ccc(F)cc4)C3=O)ccc1C(F)(F)F)C2 [Compound 80, (5R)-3-[3-{[2-(dimethylamino)-5,7-dihydro-6H-pyrrolo[3,4-d]pyrimidin-6-yl]carbonyl}-4-(trifluoromethyl)benzyl]-5-(4-fluorophenyl)-2-imino-5-(4,4,4-trifluorobutyl)imidazolidin-4-one]	11.5 nM
COC(=O)N1CCN(C(=O)c2cccc(CN3C(=N)NC(CC(C)C)(c4ccc(F)cc4)C3=O)c2)CC1 (centres unmarked) [Compound 288, methyl 4-[(3-{[4-(4-fluorophenyl)-2-imino-4-(2-methylpropyl)-5-oxoimidazolidin-1-yl]methyl}phenyl)carbonyl] piperazine-1-carboxylate]	35.3 nM
Cc1nc2c([nH]1)CN(C(=O)c1cccc(CN3C(=N)NC(CCC(C)C)(c4ccccc4)C3=O)c1)C2 (centres unmarked) [Compound 257, 2-imino-5-(3-methylbutyl)-3-{3-[(2-methyl-4,6-dihydropyrrolo[3,4-d]imidazol-5(1H)-yl)carbonyl]benzyl}-5-phenylimidazolidin-4-one]	21.2 nM
N=C1NC(c2ccc(F)cc2)(c2cccc(C(N)=O)c2)C(=O)N1Cc1cccc(C(=O)N2Cc3ccccc3C2)c1 (centres unmarked) [Compound 294, 3-{1-[3-(1,3-dihydro-2H-isoindol-2-ylcarbonyl)benzyl]-4-(4-fluorophenyl)-2-imino-5-oxoimidazolidin-4-yl}benzamide]	39.8 nM
N=C1N[C@](CCCC(F)(F)F)(c2ccc(F)cc2)C(=O)N1Cc1ccc(C(F)(F)F)c(C(=O)N2CCN(c3ccccc3)CC2)c1 [Compound 119, (5R)-5-(4-fluorophenyl)-2-imino-3-{3-[(4-phenylpiperazin-1-yl)carbonyl]-4-(trifluoromethyl)-benzyl}-5-(4,4,4-trifluorobutyl)-imidazolidin-4-one]	42.1 nM
N=C1NC(c2ccccc2)(c2ccc(-c3ccc(F)cc3)cc2)C(=O)N1Cc1cccc(C(=O)N2Cc3nccnc3C2)c1 (centres unmarked) [Compound 201, 3-[3-(5,7-dihydro-6H-pyrrolo[3,4-b]pyrazin-6-ylcarbonyl)benzyl]-5-(4′-fluorobiphenyl-4-yl)-2-imino-5-phenylimidazolidin-4-one]	6.32 nM
N=C1N[C@](CCCC(F)(F)F)(c2ccc(F)cc2)C(=O)N1Cc1ccc(C(F)(F)F)c(C(=O)N2CCn3cnnc3C2)c1 [Compound 98, (5R)-3-[3-(5,6-dihydro[1,2,4]triazolo[4,3-a]pyrazin-7(8H)-ylcarbonyl)-4-(trifluoromethyl)benzyl]-5-(4-fluorophenyl)-2-imino-5-(4,4,4-trifluorobutyl)imidazolidin-4-one]	20.7 nM
CC(C)CCC1(c2ccccc2)NC(=N)N(Cc2cc(C(=O)N3Cc4nccnc4C3)ccn2)C1=O (centres unmarked) [Compound 400, 3-{[4-(5,7-dihydro-6H-pyrrolo[3,4-b]pyrazin-6-ylcarbonyl)pyridin-2-yl]methyl}-2-imino-5-(3-methylbutyl)-5-phenylimidazolidin-4-one]	25.6 nM
